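A five-concentration, 48-hour dose response in 96-well plates underlies each endpoint, interpolated linearly between surrounding concentrations. GI50: concentration for 50% inhibition of growth. TGI marks complete inhibition of growth.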
How the values were obtained:
Test in all cases: DTP human tumour cell line panel, 48 h
HOP-92 NSCLC = tested on: HOP-92 NSCLC
PC-3 prostate = tested on: PC-3 prostate
SF-539 CNS = tested on: SF-539 CNS
SF-268 CNS = tested on: SF-268 CNS
UACC-62 melanoma = tested on: UACC-62 melanoma
SK-MEL-2 melanoma = tested on: SK-MEL-2 melanoma
T-47D breast = tested on: T-47D breast
HOP-62 NSCLC = tested on: HOP-62 NSCLC
RPMI-8226 leukemia = tested on: RPMI-8226 leukemia
SN12C renal = tested on: SN12C renal

Row | SMILES | GI50 (HOP-92 NSCLC) [µM] | TGI (HOP-92 NSCLC) [µM] | GI50 (PC-3 prostate) [µM] | TGI (PC-3 prostate) [µM] | GI50 (SF-539 CNS) [µM] | TGI (SF-539 CNS) [µM] | GI50 (SF-268 CNS) [µM] | TGI (SF-268 CNS) [µM] | GI50 (UACC-62 melanoma) [µM] | TGI (UACC-62 melanoma) [µM] | GI50 (SK-MEL-2 melanoma) [µM] | TGI (SK-MEL-2 melanoma) [µM] | GI50 (T-47D breast) [µM] | TGI (T-47D breast) [µM] | GI50 (HOP-62 NSCLC) [µM] | TGI (HOP-62 NSCLC) [µM] | GI50 (RPMI-8226 leukemia) [µM] | TGI (RPMI-8226 leukemia) [µM] | GI50 (SN12C renal) [µM] | TGI (SN12C renal) [µM]
1 | Cn1c2ccccc2c2c3c(c4c5ccccc5n(CCCCCC#N)c4c21)C(=O)N(O)C3=O | 1.77 | 6.99 | 2.22 | 8.4 | 0.295 | 1.1 | 0.624 | > 100 | 0.465 | 2.03 | 1.54 | 3.84 | 0.419 | 6.89 | 0.42 | 5.65 | 0.609 | 4.65 | 0.453 | 20.9
2 | Fc1ccc(Nc2nc(Nc3ccc(-c4nc5ccccc5[nH]4)cc3)nc(N3CCCC3)n2)cc1 | 1.76 | 5.38 | 2.74 | 8.05 | 2.08 | 4.26 | 2.67 | 7.99 | 1.77 | 3.61 | 13 | 28 | 2.28 | 5.58 | 2.12 | 5.09 | 2.28 | 6.3 | 2.25 | 5.24
3 | O=C1c2cccnc2-c2nc(-c3ccc([N+](=O)[O-])cc3)cc3c2c1nc1ccccc13 | 24 | 83.6 | 3.95 | > 100 | 3.05 | 11.3 | 3.08 | 19.8 | 5.43 | 15.6 | 3.3 | 26.5 | 10.6 | 54.9 | 12.2 | 28.3 | 8.88 | 71.5 | 11.3 | 25.7
4 | CCCCOC(=O)N[C@H]1CCc2cc(OC)c(OC)c(OC)c2-c2ccc(SC)c(=O)cc21 |  | 30.9 |  | > 81 |  | < 0.01 |  | 25.1 |  | 24.8 |  | 2.02 |  | 58.7 |  | 40.3 |  | 17.1 |  | 34.2
5 | CC(O)CN(CCN(CC(C)O)CC(C)O)CC(C)O.O=[N+]([O-])O.[Cu+2] (stereo not given) | > 100 | > 100 | > 100 | > 100 | > 100 | > 100 | > 100 | > 100 | > 100 | > 100 | > 100 | > 100 | > 100 | > 100 | > 100 | > 100 | > 100 | > 100 | > 100 | > 100
6 | COc1ccc(/C=C(/C(=O)N2CCNCC2)c2cc(OC)c(OC)c(OC)c2)cc1O | 23.5 | > 100 | 2.72 | > 100 | 2.22 | 6.51 | 7.23 | > 100 | 3.15 | > 100 | 3.51 | > 100 | 6.71 | > 100 | 5.08 | > 100 | 3.55 | > 100 | 7.86 | > 100
7 | CC(C)[C@]12O[C@H]1[C@@H]1O[C@]13[C@]1(O[C@H]1C[C@H]1c4c(C(=O)c5ccccc5)oc(OC(=O)c5ccccc5)c4CC[C@@]13C)[C@@H]2O | 0.0649 |  | 0.0358 |  | 0.0282 | 0.115 | 0.0338 | 1.6 | 0.0134 | 0.0333 | 0.0252 | 0.0781 | 0.0281 | 0.916 | 0.0278 | 0.735 | < 0.0148 | 1.06 | 0.0249 | 52.2
8 | O=C1c2cc3c(cc2-c2c1c1ccc([N+](=O)[O-])cc1c(=O)n2CCCCl)OCO3 |  | > 100 | 2.4 | > 100 | 0.145 |  | 0.102 | > 100 | 0.176 | 2.5 | > 100 | > 100 |  | > 100 | 0.383 | > 100 | 0.275 | > 26.6 | 0.0862 | 0.503
9 | O=Nc1c(-c2cccc([N+](=O)[O-])c2)nc2ncccn12 | 3.19 | 21.6 | 13.7 | 36.3 | 15.8 | 31 | 18.3 | 66.8 | 14.4 | 29.3 | 14.7 | 38.1 | 6.29 | 39.1 | 20.9 | 48.7 | 1.47 | 6.56 | 16.4 | 42.3
10 | NC(=O)NC(=O)CI | 1.65 | 3.89 | 12.6 | 26.8 | 9.5 | 23 | 16.2 | 36.4 | 5.38 | 18.7 | 5.78 | 18.7 | 1.72 | 3.9 | 20.5 | 43.1 | 5.38 | 13.1 | 6.63 | 19.2
11 | Nc1nc(Cl)nc2c1ncn2C1O[C@H](CO)[C@@H](O)[C@@H]1F (stereo not given in full) | 0.0653 | 4.8 | > 24.6 | > 100 | 3.64 | > 37.9 | 0.229 | > 54 | 0.362 | > 100 | > 100 | > 100 | 6.94 | > 100 | 0.239 | 20.6 | > 31.5 | > 100 | 0.0668 | > 100
12 | COc1cc(/C=C/C(=O)c2ccc(Nc3nc(Nc4ccc(F)cc4)nc(Nc4ccc(F)cc4)n3)cc2)cc(OC)c1OC | 2.3 | 42.6 | 3.18 | > 100 | 11.8 | > 100 | 41.2 | > 100 | 10.7 | 41.4 | 3.99 | 33.2 | 5.76 | > 100 | 5.26 | > 100 | 1.81 | 35.2 | 33.6 | > 100
13 | CSC(=S)N/N=C(\C)c1ccccn1 | 1.39 | 26.1 | 0.0452 | > 82.2 | 0.366 | 3.54 | 0.349 | 14.5 | 0.181 | 0.955 | 0.329 | 3.75 | < 0.01 | 15.2 | 0.366 | 5.19 | 0.0232 | 16.1 | 0.454 | 37.5

Source: PubChem BioAssay (NCI)
